Assay results taken from US8017612B2, “Piperazine compound and use thereof as a HCV polymerase inhibitor” (priority 2006, dated 2011).

How the values were obtained:
[1] = target: T1, HCV polymerase (NS5B) type 1b (Hepatitis C virus genotype 1b, UniProt P26663); assay: Assay of enzyme (HCV polymerase) inhibitory activity, type 1b enzyme; format: biochemical, HCV BK strain (type 1b); settings: HCV polymerase inhibitory activity IC50, 1b, type 1b enzyme
T1 construct: a region encoding NS5B (J Virol 1991 March, 65(3), 1105-13, 544 amino acids after deletion of 47 amino acids on the C-terminal); 6xHis (C); made in house; host or cells: Escherichia coli
Summary of the method: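 Rxn: NS5B 1b (BK, ΔC47, His6) 0.5 μg/ml; substrate RNA 5 μg/ml; ATP/GTP/CTP 50 μM, UTP 2 μM + [5,6-3H]UTP; 20 mM Tris pH 7.5, 5 mM MgCl2, 50 mM NaCl, 1 mM EDTA/DTT. 25 °C, 60 min. Stop with TCA/pyrophosphate, filter, scintillation count; IC50 vs. untreated.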

[2] = target: T2, HCV polymerase (NS5B) type 1a (Hepatitis C virus genotype 1a, UniProt P26664); assay: Assay of enzyme (HCV polymerase) inhibitory activity, type 1a enzyme; format: biochemical, HCV type 1a (cloned from the blood of patients); settings: HCV polymerase inhibitory activity IC50, 1a, type 1a enzyme
T2 construct: made in house; host or cells: Escherichia coli (by the 'similar method' of the 1b enzyme)
Summary of the method: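 NS5B Δ47 C-term His6 (type 1a, 1.5 μg/ml); substrate RNA 5 μg/ml; ATP/GTP/CTP 50 μM, UTP 2 μM + [5,6-3H]UTP; Tris pH 7.5, MgCl2 5 mM; 25° C, 60 min. TCA/pyrophosphate stop, GF/B filter, scintillation. IC50 vs no-compound control.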

Structure (SMILES)	IC50 [1]	IC50 [2]
CCCc1ccc(CNC(=O)[C@H]2CN(c3cnc(C(=O)O)cn3)CCN2S(=O)(=O)c2ccc(-c3ccccc3)cc2)cc1 [Example 701, (R)-4-(biphenyl-4-sulfonyl)-3-(4-propyl-benzylcarbamoyl)-3,4,5,6-tetrahydro-2H-[1,2′]bipyrazinyl-5′-carboxylic acid]	< 100 nM	< 100 nM
CC(=O)N1CCN(S(=O)(=O)c2ccc(OC(F)(F)F)cc2)[C@@H](C(=O)NCc2ccc(CCCO)cc2)C1 [Example 702, (R)-4-acetyl-1-(4-trifluoromethoxy-benzenesulfonyl)-piperazine-2-carboxylic acid 4-(3-hydroxy-propyl)-benzylamide]	> 1000 nM	> 1000 nM
CCCn1cc(CNC(=O)[C@H]2CN(C(C)=O)CCN2S(=O)(=O)c2ccc(OC(F)(F)F)cc2)cn1 [Example 703, (R)-4-acetyl-1-(4-trifluoromethoxy-benzenesulfonyl)-piperazine-2-carboxylic acid (1-propyl-1H-pyrazol-4-ylmethyl)-amide]	> 1000 nM	> 1000 nM
CCC(F)(F)c1ccc(CNC(=O)[C@H]2CN(C3=NC(=O)CS3)CCN2S(=O)(=O)c2ccc(OC(F)(F)F)cc2)cc1 [Example 704, (R)-4-(4-oxo-4,5-dihydro-thiazol-2-yl)-1-(4-trifluoromethoxy-benzenesulfonyl)-piperazine-2-carboxylic acid 4-(1,1-difluoro-propyl)-benzylamide]	< 100 nM	< 100 nM
CCC(F)(F)c1ccc(CNC(=O)[C@H]2CN(C(=O)N3CC(C(=O)O)C3)CCN2S(=O)(=O)c2ccc(OC(F)(F)F)cc2)cc1 [Example 705, 1-[(R)-3-[4-(1,1-difluoro-propyl)-benzylcarbamoyl]-4-(4-trifluoromethoxy-benzenesulfonyl)-piperazine-1-carbonyl]-azetidine-3-carboxylic acid]	> 1000 nM	> 1000 nM
CCC(F)(F)c1ccc(CNC(=O)[C@H]2CN(C(=O)N3CCC(C(=O)O)CC3)CCN2S(=O)(=O)c2ccc(OC(F)(F)F)cc2)cc1 [Example 706, 1-[(R)-3-[4-(1,1-difluoro-propyl)-benzylcarbamoyl]-4-(4-trifluoromethoxy-benzenesulfonyl)-piperazine-1-carbonyl]-piperidine-4-carboxylic acid]	> 1000 nM	> 1000 nM
CCC(F)(F)c1ccc(CNC(=O)[C@H]2CN(c3cnc4ncncc4n3)CCN2S(=O)(=O)c2ccc(OC(F)(F)F)cc2)cc1 [Example 707, (R)-4-pteridin-6-yl-1-(4-trifluoromethoxy-benzenesulfonyl)-piperazine-2-carboxylic acid 4-(1,1-difluoro-propyl)-benzylamide]	< 100 nM	< 100 nM
CCC(F)(F)c1ccc(CNC(=O)[C@H]2CN(c3cnc4cncnc4n3)CCN2S(=O)(=O)c2ccc(I)cc2)cc1 [Example 708, (R)-1-(4-iodo-benzenesulfonyl)-4-pteridin-7-yl-piperazine-2-carboxylic acid 4-(1,1-difluoro-propyl)-benzylamide]	< 100 nM	< 100 nM
CCC(F)(F)c1ccc(CNC(=O)[C@H]2CN(c3cnc4cncnc4n3)CCN2S(=O)(=O)c2ccc(-c3cccs3)cc2)cc1 [Example 709, (R)-4-pteridin-7-yl-1-(4-thiophen-2-yl-benzenesulfonyl)-piperazine-2-carboxylic acid 4-(1,1-difluoro-propyl)-benzylamide]	< 100 nM	< 100 nM
CCOC(=O)c1ccc2ncc(N3CCN(S(=O)(=O)c4ccc(OC(F)(F)F)cc4)[C@@H](C(=O)NCc4ccc(C(F)(F)CC)cc4)C3)nc2c1 [Example 710, 3-[(R)-3-[4-(1,1-difluoro-propyl)-benzylcarbamoyl]-4-(4-trifluoromethoxy-benzenesulfonyl)-piperazin-1-yl]-quinoxaline-6-carboxylic acid ethyl ester]	100 to 1000 nM	100 to 1000 nM
CCC(F)(F)c1ccc(CNC(=O)[C@H]2CN(c3cnc4ccc(C(=O)O)cc4n3)CCN2S(=O)(=O)c2ccc(OC(F)(F)F)cc2)cc1 [Example 711, 3-[(R)-3-[4-(1,1-difluoro-propyl)-benzylcarbamoyl]-4-(4-trifluoromethoxy-benzenesulfonyl)-piperazin-1-yl]-quinoxaline-6-carboxylic acid]	< 100 nM	100 to 1000 nM
CCC(F)(F)c1ccc(CNC(=O)[C@H]2CN(c3cnc4cc(C(=O)O)ccc4n3)CCN2S(=O)(=O)c2ccc(OC(F)(F)F)cc2)cc1 [Example 712, 2-[(R)-3-[4-(1,1-difluoro-propyl)-benzylcarbamoyl]-4-(4-trifluoromethoxy-benzenesulfonyl)-piperazin-1-yl]-quinoxaline-6-carboxylic acid]	< 100 nM	< 100 nM
CCC(F)(F)c1ccc(CNC(=O)[C@H]2CN(c3cnc4cnccc4n3)CCN2S(=O)(=O)c2ccc(Cl)cc2)cc1 [Example 713, (R)-1-(4-chloro-benzenesulfonyl)-4-pyrido[3,4-b]pyrazin-2-yl-piperazine-2-carboxylic acid 4-(1,1-difluoro-propyl)-benzylamide]	< 100 nM	< 100 nM
CCC(F)(F)c1ccc(CNC(=O)[C@H]2CN(c3cnc4cnccc4n3)CCN2S(=O)(=O)c2ccc(C(C)(C)C)cc2)cc1 [Example 714, (R)-1-(4-tert-butyl-benzenesulfonyl)-4-pyrido[3,4-b]pyrazin-2-yl-piperazine-2-carboxylic acid 4-(1,1-difluoro-propyl)-benzylamide]	< 100 nM	< 100 nM
CCC(F)(F)c1ccc(CNC(=O)[C@H]2CN(c3nc4ccncc4s3)CCN2S(=O)(=O)c2ccc(OC(F)(F)F)cc2)cc1 [Example 715, (R)-4-thiazolo[5,4-c]pyridin-2-yl-1-(4-trifluoromethoxy-benzenesulfonyl)-piperazine-2-carboxylic acid 4-(1,1-difluoro-propyl)-benzylamide]	< 100 nM	< 100 nM
CC(=O)N1CCN(S(=O)(=O)c2ccc(OC(F)(F)F)cc2)[C@@H](C(=O)NCCCc2cccc(O)c2)C1 [Example 716, (R)-4-acetyl-1-(4-trifluoromethoxy-benzenesulfonyl)-piperazine-2-carboxylic acid [3-(3-hydroxy-phenyl)-propyl]-amide]	> 1000 nM	> 1000 nM
CC(=O)N1CCN(S(=O)(=O)c2ccc(OC(F)(F)F)cc2)[C@@H](C(=O)NCCCc2ccc(O)cc2)C1 [Example 717, (R)-4-acetyl-1-(4-trifluoromethoxy-benzenesulfonyl)-piperazine-2-carboxylic acid [3-(4-hydroxy-phenyl)-propyl]-amide]	> 1000 nM	> 1000 nM
CCCc1ccc(CNC(=O)[C@H]2CN(C(C)=O)CCN2S(=O)(=O)c2ccc(OC(F)(F)F)cc2)cn1 [Example 718, (R)-4-acetyl-1-(4-trifluoromethoxy-benzenesulfonyl)-piperazine-2-carboxylic acid (6-propyl-pyridin-3-ylmethyl)-amide]	100 to 1000 nM	> 1000 nM
CC(=O)N1CCN(S(=O)(=O)c2ccc(OC(F)(F)F)cc2)[C@@H](C(=O)NCc2cnc(C)cn2)C1 [Example 719, (R)-4-acetyl-1-(4-trifluoromethoxy-benzenesulfonyl)-piperazine-2-carboxylic acid (5-methyl-pyrazin-2-ylmethyl)-amide]	> 1000 nM	> 1000 nM
CCCc1ccc(CNC(=O)[C@H]2CN(c3cnc4cncnc4n3)CCN2S(=O)(=O)c2ccc(OC(F)(F)F)cc2)cn1 [Example 720, (R)-4-pteridin-7-yl-1-(4-trifluoromethoxy-benzenesulfonyl)-piperazine-2-carboxylic acid (6-propyl-pyridin-3-ylmethyl)-amide]	< 100 nM	< 100 nM
Cc1cnc(CNC(=O)[C@H]2CN(c3cnc4cncnc4n3)CCN2S(=O)(=O)c2ccc(OC(F)(F)F)cc2)cn1 [Example 721, (R)-4-pteridin-7-yl-1-(4-trifluoromethoxy-benzenesulfonyl)-piperazine-2-carboxylic acid (5-methyl-pyrazin-2-ylmethyl)-amide]	> 1000 nM	> 1000 nM
CCCc1ccc(CNC(=O)[C@H]2CN(c3cnc4cncnc4n3)CCN2S(=O)(=O)c2ccc(OC(F)(F)F)cc2)cc1N [Example 722, (R)-4-pteridin-7-yl-1-(4-trifluoromethoxy-benzenesulfonyl)-piperazine-2-carboxylic acid 3-amino-4-propyl-benzylamide]	< 100 nM	100 to 1000 nM
CCCc1ccc(CNC(=O)[C@H]2CN(c3cnc4cncnc4n3)CCN2S(=O)(=O)c2ccc(OC(F)(F)F)cc2)cc1O [Example 723, (R)-4-pteridin-7-yl-1-(4-trifluoromethoxy-benzenesulfonyl)-piperazine-2-carboxylic acid 3-hydroxy-4-propyl-benzylamide]	< 100 nM	100 to 1000 nM
CCC(F)(F)c1ccc(CNC(=O)[C@H]2CN(c3cnc4cncnc4n3)CCN2S(=O)(=O)c2ccc(-c3ccccc3O)cc2)cc1 [Example 724, (R)-1-(2′-hydroxy-biphenyl-4-sulfonyl)-4-pteridin-7-yl-piperazine-2-carboxylic acid 4-(1,1-difluoro-propyl)-benzylamide]	< 100 nM	< 100 nM
